# Reference: US20220281848A1, “PYRAZOLE-SUBSTITUTED PYRROLIDINONES AS HERBICIDES” (FMC Corporation, priority 2019, published 2022)
# Tested on: plants
# Experiment: Test D pre-emergence, other plants of Tables D1 and D3
# Assay type: in vivo
# Settings: for damage to plant, ALOMY / damage to plant, AVEFA / damage to plant, BEAVA / damage to plant, BROTE / damage to plant, BRSNN / damage to plant, CHEAL / damage to plant, GALAP / damage to plant, HORVW / damage to plant, KCHSC / damage to plant, LOLPE / damage to plant, POAAN / damage to plant, POLCO / damage to plant, SINAR / damage to plant, STEME / damage to plant, VERPE: pre-emergence, 100=total damage, 0=no damage
# Experimental: A formulation containing 50 g/L of the test chemical was prepared by dissolving the active ingredient in a mixture of organic solvents and emulsifier, details of which are provided in the table. This formulation was then mixed with a small, variable amount of acetone to aid dissolution, before addition of a 0.2% v/v aqueous solution of an adjuvant, as the aqueous diluent, to form an aqueous spray solution which contains a predetermined concentration of the active ingredient.
# This aqueous spray solution was then sprayed onto plants including maize and wheat that had been seed treated with a herbicide safener, after one day's cultivation (for pre-emergence) or after about 12 days' cultivation (for post-emergence). The plants were grown from seeds sown in standard soil, placed in a glasshouse under controlled conditions (at 24/18° C. or 20/16° C., day/night; 16 h light; 65% humidity). After spray application the plants were then grown in a glasshouse under the same conditions and watered twice daily. After 15 d for post-emergence and 20 DAA for pre-emergence the test was evaluated (100=total damage to plant; 0=no damage to plant).
compound,measurement,setting,value
CN1CC(c2cc(C(F)(F)F)n(C)n2)C(C(=O)Nc2ccc(F)c(F)c2F)C1=O (racemic) [Compound 17],"damage to plant (100=total damage to plant; 0=no damage to plant), SORVU","SORVU, preemergent, rate 500, 20 DAA",0
same,"damage to plant, ALOMY","rate 15, 20 DAA",0
same,"damage to plant, AVEFA","rate 15, 20 DAA",0
same,"damage to plant, BEAVA","rate 15, 20 DAA",0
same,"damage to plant, BROTE","rate 15, 20 DAA",0
same,"damage to plant, BRSNN","rate 15, 20 DAA",0
same,"damage to plant, CHEAL","rate 15, 20 DAA",0
same,"damage to plant, GALAP","rate 15, 20 DAA",0
same,"damage to plant, HORVW","rate 15, 20 DAA",0
same,"damage to plant, KCHSC","rate 15, 20 DAA",0
same,"damage to plant, LOLPE","rate 15, 20 DAA",0
same,"damage to plant, POAAN","rate 15, 20 DAA",0
same,"damage to plant, POLCO","rate 15, 20 DAA",0
same,"damage to plant, SINAR","rate 15, 20 DAA",0
same,"damage to plant, STEME","rate 15, 20 DAA",0
same,"damage to plant, VERPE","rate 15, 20 DAA",0
same,"damage to plant, ALOMY","rate 30, 20 DAA",0
same,"damage to plant, AVEFA","rate 30, 20 DAA",0
same,"damage to plant, BEAVA","rate 30, 20 DAA",0
same,"damage to plant, BROTE","rate 30, 20 DAA",0
same,"damage to plant, BRSNN","rate 30, 20 DAA",0
same,"damage to plant, CHEAL","rate 30, 20 DAA",0
same,"damage to plant, GALAP","rate 30, 20 DAA",0
same,"damage to plant, HORVW","rate 30, 20 DAA",0
same,"damage to plant, KCHSC","rate 30, 20 DAA",0
same,"damage to plant, LOLPE","rate 30, 20 DAA",0
same,"damage to plant, POAAN","rate 30, 20 DAA",20
same,"damage to plant, POLCO","rate 30, 20 DAA",0
same,"damage to plant, SINAR","rate 30, 20 DAA",0
same,"damage to plant, STEME","rate 30, 20 DAA",0
same,"damage to plant, VERPE","rate 30, 20 DAA",0
same,"damage to plant, ALOMY","rate 60, 20 DAA",0
same,"damage to plant, AVEFA","rate 60, 20 DAA",0
same,"damage to plant, BEAVA","rate 60, 20 DAA",0
same,"damage to plant, BROTE","rate 60, 20 DAA",0
same,"damage to plant, BRSNN","rate 60, 20 DAA",0
same,"damage to plant, GALAP","rate 60, 20 DAA",0
same,"damage to plant, HORVW","rate 60, 20 DAA",0
same,"damage to plant, KCHSC","rate 60, 20 DAA",0
same,"damage to plant, LOLPE","rate 60, 20 DAA",20
same,"damage to plant, POAAN","rate 60, 20 DAA",30
same,"damage to plant, POLCO","rate 60, 20 DAA",0
same,"damage to plant, SINAR","rate 60, 20 DAA",0
same,"damage to plant, STEME","rate 60, 20 DAA",0
same,"damage to plant, VERPE","rate 60, 20 DAA",0
same,"damage to plant, ALOMY","rate 130, 20 DAA",50
same,"damage to plant, AVEFA","rate 130, 20 DAA",60
same,"damage to plant, BEAVA","rate 130, 20 DAA",0
same,"damage to plant, BROTE","rate 130, 20 DAA",0
same,"damage to plant, BRSNN","rate 130, 20 DAA",0
same,"damage to plant, CHEAL","rate 130, 20 DAA",50
same,"damage to plant, GALAP","rate 130, 20 DAA",0
same,"damage to plant, HORVW","rate 130, 20 DAA",10
same,"damage to plant, KCHSC","rate 130, 20 DAA",0
same,"damage to plant, LOLPE","rate 130, 20 DAA",40
same,"damage to plant, POAAN","rate 130, 20 DAA",70
same,"damage to plant, POLCO","rate 130, 20 DAA",0
same,"damage to plant, SINAR","rate 130, 20 DAA",0
same,"damage to plant, STEME","rate 130, 20 DAA",10
same,"damage to plant, VERPE","rate 130, 20 DAA",30
same,"damage to plant, ALOMY","rate 250, 20 DAA",60
same,"damage to plant, AVEFA","rate 250, 20 DAA",70
same,"damage to plant, BEAVA","rate 250, 20 DAA",0
same,"damage to plant, BROTE","rate 250, 20 DAA",40
same,"damage to plant, BRSNN","rate 250, 20 DAA",0
same,"damage to plant, CHEAL","rate 250, 20 DAA",60
same,"damage to plant, GALAP","rate 250, 20 DAA",0
same,"damage to plant, HORVW","rate 250, 20 DAA",40
same,"damage to plant, KCHSC","rate 250, 20 DAA",10
same,"damage to plant, LOLPE","rate 250, 20 DAA",80
same,"damage to plant, POAAN","rate 250, 20 DAA",80
same,"damage to plant, POLCO","rate 250, 20 DAA",20
same,"damage to plant, SINAR","rate 250, 20 DAA",0
same,"damage to plant, STEME","rate 250, 20 DAA",30
same,"damage to plant, VERPE","rate 250, 20 DAA",60
same,"damage to plant, ALOMY","rate 500, 20 DAA",80
same,"damage to plant, AVEFA","rate 500, 20 DAA",80
same,"damage to plant, BEAVA","rate 500, 20 DAA",10
same,"damage to plant, BROTE","rate 500, 20 DAA",60
same,"damage to plant, BRSNN","rate 500, 20 DAA",20
same,"damage to plant, CHEAL","rate 500, 20 DAA",70
same,"damage to plant, GALAP","rate 500, 20 DAA",20
same,"damage to plant, HORVW","rate 500, 20 DAA",90
same,"damage to plant, KCHSC","rate 500, 20 DAA",30
same,"damage to plant, LOLPE","rate 500, 20 DAA",80
same,"damage to plant, POAAN","rate 500, 20 DAA",90
same,"damage to plant, POLCO","rate 500, 20 DAA",30
same,"damage to plant, SINAR","rate 500, 20 DAA",0
same,"damage to plant, STEME","rate 500, 20 DAA",60
same,"damage to plant, VERPE","rate 500, 20 DAA",90
